According to ChEMBL document CHEMBL5584237, “Design, synthesis, biological evaluation, and in silico studies of novel pyridopyridine derivatives as anticancer candidates targeting FMS kinase” (Eur J Med Chem, 2024):

Columns and labels:
[1] = tested on: SNB-75; assay: Antiproliferative activity against human SNB-75 cells assessed as cell growth inhibition; assay type: functional
[2] = tested on: SN12C; assay: Antiproliferative activity against human SN12C cells assessed as cell growth inhibition; assay type: functional
[3] = Cytotoxicity against human HS27 cells assessed as reduction in cell growth measured after 48 hrs by MTT assay; assay type: toxicity, cell-based
[4] = tested on: HCT-15; assay: Antiproliferative activity against human HCT-15 cells assessed as cell growth inhibition; assay type: functional
[5] = tested on: SK-MEL-28; assay: Antiproliferative activity against human SK-MEL-28 cells assessed as cell growth inhibition; assay type: functional
[6] = tested on: PC-3; assay: Antiproliferative activity against human PC-3 cells assessed as cell growth inhibition; assay type: functional
[7] = tested on: A549; assay: Antiproliferative activity against human A549 cells assessed as cell growth inhibition; assay type: functional
[8] = tested on: HT-29; assay: Antiproliferative activity against human HT-29 cells assessed as cell growth inhibition; assay type: functional
[9] = tested on: 786-0; assay: Antiproliferative activity against human 786-0 cells assessed as cell growth inhibition; assay type: functional
[10] = tested on: MOLT-4; assay: Antiproliferative activity against human MOLT-4 cells assessed as cell growth inhibition; assay type: functional
[11] = tested on: COLO 205; assay: Antiproliferative activity against human COLO 205 cells assessed as cell growth inhibition; assay type: functional
[12] = tested on: Hep 3B2; assay: Antiproliferative activity against human Hep3B cells assessed as cell growth inhibition at 10 uM measured after 48 hrs by MTT assay relative to control; assay type: functional; settings: read-out: GI
[13] = tested on: SW-620; assay: Antiproliferative activity against human SW-620 cells assessed as cell growth inhibition; assay type: functional
[14] = tested on: Malme-3M; assay: Antiproliferative activity against human Malme-3M cells assessed as cell growth inhibition; assay type: functional
[15] = tested on: NCI-H460; assay: Antiproliferative activity against human NCI-H460 cells assessed as cell growth inhibition; assay type: functional
[16] = tested on: K562; assay: Antiproliferative activity against human K562 cells assessed as cell growth inhibition; assay type: functional
[17] = tested on: RXF 393; assay: Antiproliferative activity against human RXF 393 cells assessed as cell growth inhibition; assay type: functional
[18] = tested on: CAKI-1; assay: Antiproliferative activity against human CAKI-1 cells assessed as cell growth inhibition; assay type: functional
[19] = tested on: OVCAR-3; assay: Antiproliferative activity against human OVCAR-3 cells assessed as cell growth inhibition; assay type: functional
[20] = tested on: DU-145; assay: Antiproliferative activity against human DU-145 cells assessed as cell growth inhibition; assay type: functional
[21] = tested on: CCRF-CEM; assay: Antiproliferative activity against human CCRF-CEM cells assessed as cell growth inhibition; assay type: functional
[22] = tested on: OVCAR-4; assay: Antiproliferative activity against human OVCAR-4 cells assessed as cell growth inhibition; assay type: functional
[23] = tested on: SR; assay: Antiproliferative activity against human SR cells assessed as cell growth inhibition; assay type: functional
[24] = tested on: M14; assay: Antiproliferative activity against human M14 cells assessed as cell growth inhibition; assay type: functional
[25] = tested on: MCF7; assay: Antiproliferative activity against human MCF7 cells assessed as cell growth inhibition; assay type: functional
[26] = tested on: MDA-MB-231; assay: Antiproliferative activity against human MDA-MB-231 cells assessed as cell growth inhibition; assay type: functional
[27] = tested on: Hep 3B2; assay: cells; settings: Homo sapiens, Hep3B, 48 h
[28] = Cytotoxicity against human WI-38 cells assessed as reduction in cell growth measured after 48 hrs by MTT assay; assay type: toxicity, cell-based
[29] = tested on: HepG2; assay: cells; settings: Homo sapiens, HepG2, 48 h
Description: Antiproliferative activity against human HepG2 cells assessed as cell growth inhibition measured after 48 hrs by MTT assay

[30] = target: T1, Macrophage colony-stimulating factor 1 receptor (Homo sapiens, UniProt P07333); assay: Inhibition of FMS (unknown origin) using myelin basic protein as substrate measured after 40 mins in presence of [gamma-33P]-ATP by scintillation counting method
T1 sequence (P07333 whole entry): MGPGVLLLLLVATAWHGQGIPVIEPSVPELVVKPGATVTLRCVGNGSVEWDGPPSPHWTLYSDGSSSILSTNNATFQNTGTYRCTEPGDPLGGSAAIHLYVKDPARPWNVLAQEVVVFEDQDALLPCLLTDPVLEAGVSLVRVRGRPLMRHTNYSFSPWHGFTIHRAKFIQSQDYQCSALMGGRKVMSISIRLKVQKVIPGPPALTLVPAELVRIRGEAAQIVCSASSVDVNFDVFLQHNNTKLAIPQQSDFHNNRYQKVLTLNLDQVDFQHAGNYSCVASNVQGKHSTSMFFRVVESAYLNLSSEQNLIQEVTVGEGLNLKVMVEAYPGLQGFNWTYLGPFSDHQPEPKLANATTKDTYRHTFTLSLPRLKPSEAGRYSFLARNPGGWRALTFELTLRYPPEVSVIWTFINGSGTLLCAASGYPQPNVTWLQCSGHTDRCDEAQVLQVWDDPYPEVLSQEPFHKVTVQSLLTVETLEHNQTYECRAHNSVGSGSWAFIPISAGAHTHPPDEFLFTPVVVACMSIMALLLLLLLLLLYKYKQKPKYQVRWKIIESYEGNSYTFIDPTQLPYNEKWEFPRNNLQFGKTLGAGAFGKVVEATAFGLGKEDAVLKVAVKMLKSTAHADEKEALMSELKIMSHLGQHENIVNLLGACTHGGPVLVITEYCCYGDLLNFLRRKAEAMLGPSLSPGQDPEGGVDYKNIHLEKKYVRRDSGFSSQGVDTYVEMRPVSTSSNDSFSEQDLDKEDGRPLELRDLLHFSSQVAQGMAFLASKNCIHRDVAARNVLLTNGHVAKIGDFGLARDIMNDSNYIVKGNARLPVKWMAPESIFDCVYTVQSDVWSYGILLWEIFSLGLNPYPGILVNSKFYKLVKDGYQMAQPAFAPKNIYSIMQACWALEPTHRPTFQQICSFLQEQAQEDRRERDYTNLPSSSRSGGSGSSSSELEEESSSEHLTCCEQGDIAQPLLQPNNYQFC

[31] = target: Voltage-gated inwardly rectifying potassium channel KCNH2 (Homo sapiens, UniProt Q12809); assay: Inhibition of fluorescence tracer red binding to human ERG measured after 3 hrs by fluorescence polarization assay
Voltage-gated inwardly rectifying potassium channel KCNH2, sequence (Q12809 whole entry, the tested form may be a part): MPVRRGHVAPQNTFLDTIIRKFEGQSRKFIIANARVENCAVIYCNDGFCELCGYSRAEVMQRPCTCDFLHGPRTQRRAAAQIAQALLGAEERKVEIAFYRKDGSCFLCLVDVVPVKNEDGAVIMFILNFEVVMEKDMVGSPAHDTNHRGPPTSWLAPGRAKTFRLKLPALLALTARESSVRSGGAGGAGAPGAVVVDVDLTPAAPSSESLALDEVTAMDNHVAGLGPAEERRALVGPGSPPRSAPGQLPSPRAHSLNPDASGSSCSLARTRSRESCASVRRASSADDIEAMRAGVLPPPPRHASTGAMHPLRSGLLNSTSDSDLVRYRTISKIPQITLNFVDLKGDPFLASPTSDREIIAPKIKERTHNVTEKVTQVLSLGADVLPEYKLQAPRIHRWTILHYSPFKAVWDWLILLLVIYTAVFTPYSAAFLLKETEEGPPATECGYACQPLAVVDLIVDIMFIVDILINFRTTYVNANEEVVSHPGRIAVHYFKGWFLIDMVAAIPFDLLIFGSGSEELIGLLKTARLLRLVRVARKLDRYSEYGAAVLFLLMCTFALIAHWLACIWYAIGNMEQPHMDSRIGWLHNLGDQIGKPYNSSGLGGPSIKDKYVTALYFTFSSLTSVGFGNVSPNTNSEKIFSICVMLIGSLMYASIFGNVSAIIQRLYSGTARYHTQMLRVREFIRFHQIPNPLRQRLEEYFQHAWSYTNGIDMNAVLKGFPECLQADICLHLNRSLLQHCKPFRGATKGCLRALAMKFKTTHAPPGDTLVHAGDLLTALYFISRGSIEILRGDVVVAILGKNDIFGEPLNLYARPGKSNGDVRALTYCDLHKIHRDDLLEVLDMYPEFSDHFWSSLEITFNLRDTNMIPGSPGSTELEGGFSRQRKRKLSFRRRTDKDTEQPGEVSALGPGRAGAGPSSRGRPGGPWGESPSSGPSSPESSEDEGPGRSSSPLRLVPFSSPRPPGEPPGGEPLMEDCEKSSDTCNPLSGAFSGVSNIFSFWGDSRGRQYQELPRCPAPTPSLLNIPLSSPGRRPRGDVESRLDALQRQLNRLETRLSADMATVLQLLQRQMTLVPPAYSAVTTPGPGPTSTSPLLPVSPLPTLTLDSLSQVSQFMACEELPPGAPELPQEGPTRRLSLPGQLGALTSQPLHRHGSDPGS

[32] = target: T1, Macrophage colony-stimulating factor 1 receptor; assay: Inhibition of NanoLuc-fused FMS (unknown origin) transfected in HEK293 cells by NanoBRET assay; assay type: cell-based
[33] = tested on: LOX IMVI; assay: Antiproliferative activity against human LOX IMVI cells assessed as cell growth inhibition; assay type: functional
[34] = tested on: SF-539; assay: Antiproliferative activity against human SF-539 cells assessed as cell growth inhibition; assay type: functional
[35] = tested on: SF-295; assay: Antiproliferative activity against human SF-295 cells assessed as cell growth inhibition; assay type: functional
[36] = tested on: MDA-MB-468; assay: Antiproliferative activity against human MDA-MB-468 cells assessed as cell growth inhibition; assay type: functional
[37] = tested on: Hs-578T; assay: Antiproliferative activity against human Hs-578T cells assessed as cell growth inhibition; assay type: functional
[38] = tested on: BMDM; assay: Inhibition of CSF-1-induced C57BL6 mouse BMDM cell growth preincubated for 1 hr followed by CSF-1 addition and measured after 5 hrs by alamar blue assay
[39] = tested on: MDA-MB-435; assay: Antiproliferative activity against human MDA-MB-435 cells assessed as cell growth inhibition; assay type: functional
[40] = tested on: HCT-116; assay: Antiproliferative activity against human HCT-116 cells assessed as cell growth inhibition; assay type: functional

SMILES: CNC(=O)c1cc(Oc2ccc(NC(=O)Nc3ccc(Cl)c(C(F)(F)F)c3)cc2)ccn1 [SORAFENIB]
- GI50 [1]: 3160 nM
- GI50 [2]: 2510 nM
- IC50 at 48 h [3]: 8.3 µM
- GI50 [4]: 2510 nM
- GI50 [5]: 2510 nM
- GI50 [6]: 2000 nM
- GI50 [7]: 3160 nM
- GI50 [8]: 2000 nM
- GI50 [9]: 3160 nM
- GI50 [10]: 3160 nM
- TGI [10]: 100 µM
- GI50 [11]: 2000 nM
- inhibition of growth at 10 µM [12]: 75%
- GI50 [13]: 2510 nM
- GI50 [14]: 2000 nM
- GI50 [15]: 2510 nM
- GI50 [16]: 3160 nM
- GI50 [17]: 3160 nM
- GI50 [18]: 3.16 µM
- GI50 [19]: 3.16 µM
- GI50 [20]: 3.16 µM
- GI50 [21]: 2000 nM
- GI50 [22]: 3.16 µM
- GI50 [23]: 3160 nM
- GI50 [24]: 2000 nM
- GI50 [25]: 2510 nM
- TGI [25]: 7.94 µM
- GI50 [26]: 1260 nM

SMILES: CNC(=O)c1cc(-c2ccc(NC(=O)Nc3ccc(N4CCOCC4)c(C(F)(F)F)c3)cc2)nc2cccnc12
- IC50 at 48 h [3]: 11.6 µM
- IC50 [27]: 1890 nM
- IC50 at 48 h [28]: > 20 µM
- IC50 [29]: 1270 nM
- IC50 ([30]; read-out: IC50): 134 nM

SMILES: C=CC(=O)N1CCN(c2ccc(NC(=O)Nc3ccc(-c4cc(C(=O)NC(C)C)c5ncccc5n4)cc3)cc2C(F)(F)F)CC1
- IC50 at 48 h [3]: 8.1 µM
- IC50 [27]: 810 nM
- IC50 at 48 h [28]: 15.8 µM
- IC50 [29]: 870 nM
- IC50 ([30]; read-out: IC50): 788 nM

SMILES: C=CC(=O)N1CCN(c2ccc(NC(=O)Nc3ccc(-c4cc(C(=O)NC)c5ncccc5n4)cc3)cc2C(F)(F)F)CC1
- IC50 ([30]; read-out: IC50): 196 nM

SMILES: CC(C)NC(=O)c1cc(-c2ccc(NC(=O)Nc3ccc(N4CCOCC4)c(C(F)(F)F)c3)cc2)nc2cccnc12
- IC50 ([30]; read-out: IC50): 901 nM

SMILES: CC(C)NC(=O)c1cc(-c2ccc(NC(=O)Nc3ccc(N4CCN(C)CC4)c(C(F)(F)F)c3)cc2)nc2cccnc12
- IC50 at 48 h [3]: 8 µM
- IC50 [27]: 1760 nM
- IC50 at 48 h [28]: 18.3 µM
- IC50 [29]: 800 nM
- IC50 ([30]; read-out: IC50): 797 nM
- IC50 ([30]; read-out: pIC50 (converted)): 813 nM

SMILES: CNC(=O)c1cc(-c2ccc(NC(=O)Nc3ccc(N4CCN(C)CC4)c(C(F)(F)F)c3)cc2)nc2cccnc12
- IC50 [31]: 95.9 µM
- IC50 [32]: 563 nM

SMILES: CC(C)NC(=O)c1cc(-c2ccc(NC(=O)Nc3ccc(F)c(C(F)(F)F)c3)cc2)nc2cccnc12
- inhibition of growth at 10 µM [12]: 84.8%

SMILES: CNC(=O)c1cc(-c2ccc(NC(=O)Nc3ccc(N4CCNCC4)c(C(F)(F)F)c3)cc2)nc2cccnc12
- IC50 ([30]; read-out: IC50): 743 nM

SMILES: CCN1CCN(c2ccc(NC(=O)Nc3ccc(-c4cc(C(=O)NC)c5ncccc5n4)cc3)cc2C(F)(F)F)CC1
- GI50 [1]: 840 nM
- TGI [1]: 3.82 µM
- TGI [2]: 5.3 µM
- IC50 at 48 h [3]: 8.8 µM
- GI50 [4]: 330 nM
- TGI [4]: 700 nM
- GI50 [5]: 320 nM
- TGI [5]: 580 nM
- GI50 [33]: 670 nM
- TGI [33]: 2660 nM
- TGI [6]: 6.03 µM
- GI50 [7]: 470 nM
- TGI [7]: 13 µM
- GI50 [34]: 2300 nM
- TGI [34]: 4.57 µM
- GI50 [8]: 530 nM
- TGI [8]: 2110 nM
- GI50 [9]: 300 nM
- TGI [9]: 580 nM
- TGI [35]: 4.47 µM
- GI50 [10]: 690 nM
- TGI [10]: 18 µM
- IC50 [31]: 83.4 µM
- TGI [11]: 14.2 µM
- GI50 [13]: 310 nM
- TGI [13]: 620 nM
- GI50 [14]: 290 nM
- TGI [14]: 530 nM
- GI50 [15]: 660 nM
- TGI [15]: 2930 nM
- GI50 [16]: 660 nM
- TGI [16]: 18 µM
- TGI [36]: 5.03 µM
- GI50 [17]: 500 nM
- TGI [17]: 1660 nM
- TGI [18]: 5.6 µM
- TGI [19]: 5.06 µM
- TGI [37]: 6.88 µM
- IC50 [38]: 167 nM
- TGI [20]: 4.9 µM
- IC50 at 48 h [28]: 16.7 µM
- GI50 [21]: 460 nM
- TGI [21]: 1270 nM
- TGI [22]: 5.63 µM
- GI50 [39]: 270 nM
- TGI [39]: 560 nM
- GI50 [23]: 670 nM
- TGI [23]: 18 µM
- TGI [40]: 4.83 µM
- GI50 [24]: 400 nM
- TGI [24]: 1050 nM
- IC50 [32]: 1350 nM
- GI50 [25]: 290 nM
- TGI [25]: 0.61 µM
- TGI [26]: 5.25 µM

SMILES: CC(C)NC(=O)c1cc(-c2ccc(NC(=O)Nc3ccc(N4CCNCC4)c(C(F)(F)F)c3)cc2)nc2cccnc12
- IC50 at 48 h [3]: 9.1 µM
- IC50 [27]: 850 nM
- IC50 at 48 h [28]: 18.6 µM
- IC50 [29]: 920 nM
- IC50 ([30]; read-out: IC50): 852 nM
